In ChEMBL document CHEMBL3804767, “Discovery and Preclinical Evaluation of BMS-955829, a Potent Positive Allosteric Modulator of mGluR5” (ACS Med Chem Lett, 2016):
pEC50, pIC50, pKi: −log10 of the molar value. Active and inactive are the calls of the source. The calls are words filed in the database; no cut-off is given here.

What was measured:
Canis familiaris = assay: Toxicity in dog administered as repeated dosage for 5 days; assay type: organism-based, Canis lupus familiaris; details: in vivo, 120 h
[1] = molecular target: Metabotropic glutamate receptor 1 (Homo sapiens) (UniProt Q13255); assay: Negative allosteric modulation of mGlu1 receptor (unknown origin)
Plasma [2] = assay: Total plasma concentration in Sprague-Dawley rat at 0.1 mg/kg, sc; assay type: ADME, organism-based; details: in vivo
[3] = molecular target: Metabotropic glutamate receptor 7 (Homo sapiens) (UniProt Q14831); assay: Positive allosteric modulation of mGlu7 receptor (unknown origin)
[4] = Volume of distribution at steady state in rat at 1 mg/kg, iv; assay type: ADME, organism-based; details: in vivo, read-out: Vdss
[5] = molecular target: Metabotropic glutamate receptor 3 (Homo sapiens) (UniProt Q14832); assay: Agonist activity at mGlu3 receptor (unknown origin)
Plasma [6] = assay: Total plasma concentration in mouse at 0.3 mg/kg, sc; assay type: ADME, organism-based; details: in vivo
[7] = molecular target: Metabotropic glutamate receptor 4 (Homo sapiens) (UniProt Q14833); assay: Negative allosteric modulation of mGlu4 receptor (unknown origin)
[8] = molecular target: Metabotropic glutamate receptor 4 (Homo sapiens) (UniProt Q14833); assay: Agonist activity at mGlu4 receptor (unknown origin)
Mus musculus [9] = assay: Cognitive enhancement effect in mouse assessed as reduction in time spent with familiar object in retention session at 0.3 to 3 mg/kg, sc treated for 60 mins prior to acquisition session measured after 24 hrs for 10 mins by novel object recognition assay; assay type: functional; details: read-out: MED
[10] = molecular target: Metabotropic glutamate receptor 8 (Homo sapiens) (UniProt O00222); assay: Agonist activity at mGlu8 receptor (unknown origin)
Rattus norvegicus [11] = assay: Receptor occupancy of mGlu5 receptor in Sprague-Dawley rat at 0.1 mg/kg, sc relative to control; assay type: functional
[12] = Cmax in rat at 100 mg/kg, po measured on day1; assay type: ADME, organism-based; set-up: dose 100 mg/kg, route oral; details: in vivo
[13] = molecular target: Metabotropic glutamate receptor 3 (Homo sapiens) (UniProt Q14832); assay: Positive allosteric modulation of mGlu3 receptor (unknown origin)
[14] = molecular target: Metabotropic glutamate receptor 8 (Homo sapiens) (UniProt O00222); assay: Negative allosteric modulation of mGlu8 receptor (unknown origin)
[15] = molecular target: Metabotropic glutamate receptor 6 (Homo sapiens) (UniProt O15303); assay: Agonist activity at mGlu6 receptor (unknown origin)
Mus musculus [16] = assay: Receptor occupancy of mGlu5 receptor in mouse at 0.3 mg/kg, sc relative to control; assay type: functional
[17] = Oral bioavailability in dog at 1 mg/kg; assay type: ADME, organism-based, Canis lupus familiaris; details: in vivo
Rattus norvegicus [18] = assay: Reversal of NMDA antagonist MK-801-induced deficits in set shift performance in Sprague-Dawley rat assessed as reduction in number of trial required to achieve 8 consecutive correct selection at 0.1 to 3 mg/kg, sc pretreated for 25 mins followed by MK-801 injection measured after 35 mins by wisconsin card sorting test; assay type: functional; details: read-out: MED
[19] = Ratio of drug level in brain to plasma in rat at 1 mg/kg, iv; assay type: ADME, organism-based; details: read-out: BPR
Brain [20] = assay: Total drug level in Sprague-Dawley rat brain at 0.1 mg/kg, sc; assay type: ADME, organism-based; details: in vivo, read-out: Drug uptake
[21] = molecular target: Metabotropic glutamate receptor 8 (Homo sapiens) (UniProt O00222); assay: Positive allosteric modulation of mGlu8 receptor (unknown origin)
Mus musculus [22] = assay: Ex vivo receptor occupancy of mGlu5 receptor in C57/BL6 mouse at 10 to 30 mg/kg, ip relative to control; assay type: functional
Salmonella typhimurium [23] = assay: Mutagenicity in Salmonella typhimurium by Ames test in presence of s9 liver fraction; assay type: toxicity, organism-based; details: salmonella enterica subsp. enterica serovar typhimurium
[24] = AUC (0 to 24 hrs) in rat at 100 mg/kg, po measured on day1; assay type: ADME, organism-based; set-up: time < 24 hr, dose 100 mg/kg, route oral; details: in vivo
[25] = molecular target: Metabotropic glutamate receptor 3 (Homo sapiens) (UniProt Q14832); assay: Negative allosteric modulation of mGlu3 receptor (unknown origin)
Rattus norvegicus [26] = assay: Toxicity in rat administered as repeated dosage for 2 weeks; assay type: organism-based; details: in vivo, 336 h
[27] = molecular target: Metabotropic glutamate receptor 1 (Homo sapiens) (UniProt Q13255); assay: Positive allosteric modulation of mGlu1 receptor (unknown origin)
[28] = molecular target: T1, Progesterone receptor (Homo sapiens) (UniProt P06401); assay: Agonist activity at progesterone receptor (unknown origin)
T1 sequence (whole entry): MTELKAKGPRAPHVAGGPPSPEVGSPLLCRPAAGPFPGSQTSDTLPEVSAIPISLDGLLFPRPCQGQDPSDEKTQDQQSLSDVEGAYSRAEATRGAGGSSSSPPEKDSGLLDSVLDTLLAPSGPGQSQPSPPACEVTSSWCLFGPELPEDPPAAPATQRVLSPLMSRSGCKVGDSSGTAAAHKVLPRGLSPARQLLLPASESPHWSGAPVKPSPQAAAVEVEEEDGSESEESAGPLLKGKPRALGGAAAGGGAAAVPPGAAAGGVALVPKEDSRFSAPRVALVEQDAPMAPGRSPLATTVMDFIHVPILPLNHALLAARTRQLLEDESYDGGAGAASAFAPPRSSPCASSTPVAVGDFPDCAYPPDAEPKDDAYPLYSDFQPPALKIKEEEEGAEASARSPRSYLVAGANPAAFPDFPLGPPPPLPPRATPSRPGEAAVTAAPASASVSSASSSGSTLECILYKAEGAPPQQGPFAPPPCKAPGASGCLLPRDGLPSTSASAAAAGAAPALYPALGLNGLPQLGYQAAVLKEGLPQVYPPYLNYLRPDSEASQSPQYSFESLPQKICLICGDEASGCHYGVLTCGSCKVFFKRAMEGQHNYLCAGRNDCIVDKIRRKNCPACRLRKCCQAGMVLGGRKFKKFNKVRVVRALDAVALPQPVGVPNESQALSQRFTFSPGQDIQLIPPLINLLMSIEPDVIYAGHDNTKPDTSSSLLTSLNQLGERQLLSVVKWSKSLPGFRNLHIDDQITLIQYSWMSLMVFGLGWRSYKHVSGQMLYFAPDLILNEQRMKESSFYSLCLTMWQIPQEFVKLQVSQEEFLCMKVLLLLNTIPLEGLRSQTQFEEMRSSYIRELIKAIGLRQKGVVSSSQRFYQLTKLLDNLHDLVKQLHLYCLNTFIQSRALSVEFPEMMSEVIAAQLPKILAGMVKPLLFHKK

Rattus norvegicus [29] = assay: Neurotoxicity in rat assessed as neuronal necrosis in brain auditory complex at 100 mg/kg/day, po for 8 days by haematoxylin and eosin staining based assay; assay type: toxicity, organism-based; details: in vivo, 192 h
[30] = molecular target: Metabotropic glutamate receptor 2 (Homo sapiens) (UniProt Q14416); assay: Agonist activity at mGlu2 receptor (unknown origin)
[31] = Inhibition of human recombinant CYP450; assay type: ADME
[32] = Oral bioavailability in rat at 1 mg/kg; assay type: ADME, organism-based; details: in vivo
[33] = molecular target: Metabotropic glutamate receptor 7 (Homo sapiens) (UniProt Q14831); assay: Negative allosteric modulation of mGlu7 receptor (unknown origin)
[34] = molecular target: Metabotropic glutamate receptor 2 (Homo sapiens) (UniProt Q14416); assay: Positive allosteric modulation of mGlu2 receptor (unknown origin)
Progesterone receptor = molecular target: T2, Progesterone receptor (Homo sapiens, UniProt P06401); assay: Inhibition of progesterone receptor (unknown origin)
T2 sequence (P06401 whole entry): T1 sequence (whole entry)

Mus musculus [35] = assay: Neurotoxicity in C57/BL6 mouse assessed as induction of convulsion at 30 mg/kg, ip; assay type: toxicity, organism-based; details: in vivo
[36] = molecular target: T1, Progesterone receptor (Homo sapiens); assay: Antagonist activity at progesterone receptor (unknown origin)
Rattus norvegicus [37] = assay: Neurotoxicity in rat assessed as neuronal necrosis in brain hippocampal slice at 100 mg/kg/day, po for 8 days by haematoxylin and eosin staining based assay; assay type: toxicity, organism-based; details: in vivo, 192 h
Homo sapiens = organism: Homo sapiens; assay: Inhibition of sodium channel (unknown origin) at 10 uM by patch clamp method relative to control
[38] = Clearance in rat at 1 mg/kg, iv; assay type: ADME, organism-based; details: in vivo
Brain [39] = assay: Total drug level in mouse brain at 0.3 mg/kg, sc; assay type: ADME, organism-based; details: in vivo, read-out: Drug uptake
[40] = Protein binding in plasma (unknown origin); assay type: ADME, cell-free; details: read-out: PPB (converted)
[41] = molecular target: Metabotropic glutamate receptor 6 (Homo sapiens) (UniProt O15303); assay: Positive allosteric modulation of mGlu6 receptor (unknown origin)
[42] = molecular target: Metabotropic glutamate receptor 4 (Homo sapiens) (UniProt Q14833); assay: Positive allosteric modulation of mGlu4 receptor (unknown origin)
[43] = molecular target: Metabotropic glutamate receptor 1 (Homo sapiens) (UniProt Q13255); assay: Agonist activity at mGlu1 receptor (unknown origin)
[44] = molecular target: Metabotropic glutamate receptor 6 (Homo sapiens) (UniProt O15303); assay: Negative allosteric modulation of mGlu6 receptor (unknown origin)
Salmonella typhimurium [45] = assay: Mutagenicity in Salmonella typhimurium by Ames test; assay type: toxicity, organism-based; details: salmonella enterica subsp. enterica serovar typhimurium
[46] = molecular target: Metabotropic glutamate receptor 7 (Homo sapiens) (UniProt Q14831); assay: Agonist activity at mGlu7 receptor (unknown origin)
[47] = molecular target: Metabotropic glutamate receptor 2 (Homo sapiens) (UniProt Q14416); assay: Negative allosteric modulation of mGlu2 receptor (unknown origin)
[48] = Oral bioavailability in cynomolgus monkey at 1 mg/kg; assay type: ADME, organism-based, Macaca fascicularis; details: in vivo
[49] = molecular target: Voltage-gated inwardly rectifying potassium channel KCNH2 (Homo sapiens, UniProt Q12809); assay: Inhibition of human ERG by patch clamp method
[50] = molecular target: T3, Metabotropic glutamate receptor 5 (Homo sapiens, UniProt P41594)
Description: Displacement of [3H]MPEPgamma in mGlu5 receptor (unknown origin) incubated for 60 mins by liquid scintillation counting method

[51] = molecular target: T3, Metabotropic glutamate receptor 5; remark: listed apart in the source
Description: Positive allosteric modulation of human mGlu5A receptor expressed in HEK293 cells coexpressing rat glutamate-aspartate transporter assessed as potentiation of L-glutamate-induced Ca2+ signal incubated for 60 mins by calcium 4 dye based FLIPR assay

[52] = molecular target: T3, Metabotropic glutamate receptor 5; remark: listed apart in the source
Description: Agonist activity at human mGlu5A receptor expressed in HEK293 cells coexpressing rat glutamate-aspartate transporter assessed as induction of Ca2+ release by calcium 4 dye based FLIPR assay

Mus musculus [53] = assay: Neurotoxicity in C57/BL6 mouse assessed as induction of convulsion at 10 mg/kg, ip; assay type: toxicity, organism-based; details: in vivo
Mus musculus [54] = assay: Neurotoxicity in C57/BL6 mouse assessed as induction of convulsion at 10 mg/kg, ip coadministered with (4R,5R)-5-Phenyl-4-(4-(phenylethynyl)pyridin-2-yl)oxazolidin-2-one; assay type: toxicity, organism-based; details: in vivo
[55] = molecular target: Metabotropic glutamate receptor 5 (Rattus norvegicus, UniProt P31424); assay: Agonist activity at mGlu5A receptor in primary rat cortical astrocytes; assay type: cell-based

Metabotropic glutamate receptor 6 (Homo sapiens), sequence (O15303 whole entry): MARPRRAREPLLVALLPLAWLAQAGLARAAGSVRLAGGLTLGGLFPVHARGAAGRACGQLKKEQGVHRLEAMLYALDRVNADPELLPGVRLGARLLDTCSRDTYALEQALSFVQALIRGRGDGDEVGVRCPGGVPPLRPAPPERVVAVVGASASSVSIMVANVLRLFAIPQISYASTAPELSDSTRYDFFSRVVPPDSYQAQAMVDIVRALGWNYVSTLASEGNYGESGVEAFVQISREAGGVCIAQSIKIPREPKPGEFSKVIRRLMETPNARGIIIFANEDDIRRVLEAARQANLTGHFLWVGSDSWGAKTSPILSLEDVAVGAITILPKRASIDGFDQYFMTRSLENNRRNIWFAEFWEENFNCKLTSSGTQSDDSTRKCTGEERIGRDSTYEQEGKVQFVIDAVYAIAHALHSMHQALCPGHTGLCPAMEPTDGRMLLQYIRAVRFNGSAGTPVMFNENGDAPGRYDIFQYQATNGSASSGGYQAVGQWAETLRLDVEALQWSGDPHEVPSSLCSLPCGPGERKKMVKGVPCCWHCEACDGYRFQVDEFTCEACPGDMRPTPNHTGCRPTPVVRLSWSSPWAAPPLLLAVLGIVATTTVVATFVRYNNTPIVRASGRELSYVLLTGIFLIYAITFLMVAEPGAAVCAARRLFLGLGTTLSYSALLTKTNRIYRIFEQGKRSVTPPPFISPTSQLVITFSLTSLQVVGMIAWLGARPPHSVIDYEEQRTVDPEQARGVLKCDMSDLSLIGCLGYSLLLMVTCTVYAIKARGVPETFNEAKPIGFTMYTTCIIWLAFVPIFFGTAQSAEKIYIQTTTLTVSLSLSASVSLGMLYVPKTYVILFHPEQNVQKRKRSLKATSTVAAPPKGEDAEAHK
T3 sequence (P41594 whole entry): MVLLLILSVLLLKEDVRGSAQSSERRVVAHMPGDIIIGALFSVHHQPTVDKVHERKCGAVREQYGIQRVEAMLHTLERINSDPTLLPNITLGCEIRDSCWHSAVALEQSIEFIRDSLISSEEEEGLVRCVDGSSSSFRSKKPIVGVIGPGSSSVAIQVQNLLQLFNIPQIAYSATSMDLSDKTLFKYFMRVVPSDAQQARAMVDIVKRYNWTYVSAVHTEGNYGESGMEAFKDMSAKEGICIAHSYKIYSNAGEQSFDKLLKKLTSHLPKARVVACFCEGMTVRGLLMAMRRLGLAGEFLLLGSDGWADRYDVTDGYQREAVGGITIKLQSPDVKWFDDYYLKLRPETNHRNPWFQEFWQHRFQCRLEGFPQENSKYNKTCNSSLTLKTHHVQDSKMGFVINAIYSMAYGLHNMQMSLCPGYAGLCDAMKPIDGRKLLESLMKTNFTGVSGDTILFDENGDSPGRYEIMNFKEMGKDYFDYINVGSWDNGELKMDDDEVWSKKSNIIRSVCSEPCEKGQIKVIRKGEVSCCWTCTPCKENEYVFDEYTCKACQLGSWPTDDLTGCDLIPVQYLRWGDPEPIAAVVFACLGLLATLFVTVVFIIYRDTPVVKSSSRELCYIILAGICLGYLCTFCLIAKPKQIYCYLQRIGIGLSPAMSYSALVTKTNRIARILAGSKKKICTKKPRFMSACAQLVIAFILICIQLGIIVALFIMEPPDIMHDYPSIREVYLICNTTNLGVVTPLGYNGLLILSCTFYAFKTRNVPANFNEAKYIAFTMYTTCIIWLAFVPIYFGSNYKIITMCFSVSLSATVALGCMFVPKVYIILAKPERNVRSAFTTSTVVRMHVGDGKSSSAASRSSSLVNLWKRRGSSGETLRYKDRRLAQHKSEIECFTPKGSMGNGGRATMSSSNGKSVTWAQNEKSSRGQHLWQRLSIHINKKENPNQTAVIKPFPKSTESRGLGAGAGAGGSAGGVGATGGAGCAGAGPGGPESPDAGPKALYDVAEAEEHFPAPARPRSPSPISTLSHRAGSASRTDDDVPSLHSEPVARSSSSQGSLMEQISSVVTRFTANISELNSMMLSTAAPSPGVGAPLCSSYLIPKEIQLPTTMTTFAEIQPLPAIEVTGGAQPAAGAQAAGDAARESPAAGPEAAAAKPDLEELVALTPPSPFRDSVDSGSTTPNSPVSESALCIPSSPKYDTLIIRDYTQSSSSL
Metabotropic glutamate receptor 1 (Homo sapiens), sequence (Q13255 19-1194 limits assumed): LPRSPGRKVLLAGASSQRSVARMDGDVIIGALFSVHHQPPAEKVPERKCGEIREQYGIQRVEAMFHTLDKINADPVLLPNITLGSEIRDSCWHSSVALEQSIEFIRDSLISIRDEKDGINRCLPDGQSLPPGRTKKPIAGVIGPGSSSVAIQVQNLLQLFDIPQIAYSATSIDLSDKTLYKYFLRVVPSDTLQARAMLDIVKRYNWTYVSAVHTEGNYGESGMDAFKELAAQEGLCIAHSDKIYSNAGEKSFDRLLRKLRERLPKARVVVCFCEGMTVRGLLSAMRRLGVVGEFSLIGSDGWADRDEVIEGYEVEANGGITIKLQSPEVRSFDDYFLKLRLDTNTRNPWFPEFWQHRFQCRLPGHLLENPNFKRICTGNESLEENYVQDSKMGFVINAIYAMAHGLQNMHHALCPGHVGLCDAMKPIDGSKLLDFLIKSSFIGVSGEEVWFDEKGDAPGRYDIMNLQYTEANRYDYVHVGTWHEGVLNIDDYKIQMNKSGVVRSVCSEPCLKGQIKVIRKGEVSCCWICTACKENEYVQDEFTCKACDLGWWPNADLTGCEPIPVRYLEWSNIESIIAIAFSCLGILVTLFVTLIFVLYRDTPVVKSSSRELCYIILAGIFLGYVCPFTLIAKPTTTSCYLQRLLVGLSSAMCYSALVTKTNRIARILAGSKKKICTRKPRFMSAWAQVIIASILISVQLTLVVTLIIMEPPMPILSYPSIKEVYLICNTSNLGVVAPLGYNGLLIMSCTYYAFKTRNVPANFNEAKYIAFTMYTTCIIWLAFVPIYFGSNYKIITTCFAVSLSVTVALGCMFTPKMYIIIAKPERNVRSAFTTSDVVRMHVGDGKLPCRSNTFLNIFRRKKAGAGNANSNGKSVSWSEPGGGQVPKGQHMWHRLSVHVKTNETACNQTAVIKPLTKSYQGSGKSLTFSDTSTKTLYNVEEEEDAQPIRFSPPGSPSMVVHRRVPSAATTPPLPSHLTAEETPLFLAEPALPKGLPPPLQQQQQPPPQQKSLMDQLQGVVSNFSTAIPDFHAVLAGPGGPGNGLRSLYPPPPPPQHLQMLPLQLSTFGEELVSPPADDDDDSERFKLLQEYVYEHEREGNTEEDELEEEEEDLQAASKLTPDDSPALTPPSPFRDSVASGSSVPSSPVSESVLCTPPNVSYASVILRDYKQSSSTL
Metabotropic glutamate receptor 7 (Homo sapiens), sequence (Q14831 whole entry): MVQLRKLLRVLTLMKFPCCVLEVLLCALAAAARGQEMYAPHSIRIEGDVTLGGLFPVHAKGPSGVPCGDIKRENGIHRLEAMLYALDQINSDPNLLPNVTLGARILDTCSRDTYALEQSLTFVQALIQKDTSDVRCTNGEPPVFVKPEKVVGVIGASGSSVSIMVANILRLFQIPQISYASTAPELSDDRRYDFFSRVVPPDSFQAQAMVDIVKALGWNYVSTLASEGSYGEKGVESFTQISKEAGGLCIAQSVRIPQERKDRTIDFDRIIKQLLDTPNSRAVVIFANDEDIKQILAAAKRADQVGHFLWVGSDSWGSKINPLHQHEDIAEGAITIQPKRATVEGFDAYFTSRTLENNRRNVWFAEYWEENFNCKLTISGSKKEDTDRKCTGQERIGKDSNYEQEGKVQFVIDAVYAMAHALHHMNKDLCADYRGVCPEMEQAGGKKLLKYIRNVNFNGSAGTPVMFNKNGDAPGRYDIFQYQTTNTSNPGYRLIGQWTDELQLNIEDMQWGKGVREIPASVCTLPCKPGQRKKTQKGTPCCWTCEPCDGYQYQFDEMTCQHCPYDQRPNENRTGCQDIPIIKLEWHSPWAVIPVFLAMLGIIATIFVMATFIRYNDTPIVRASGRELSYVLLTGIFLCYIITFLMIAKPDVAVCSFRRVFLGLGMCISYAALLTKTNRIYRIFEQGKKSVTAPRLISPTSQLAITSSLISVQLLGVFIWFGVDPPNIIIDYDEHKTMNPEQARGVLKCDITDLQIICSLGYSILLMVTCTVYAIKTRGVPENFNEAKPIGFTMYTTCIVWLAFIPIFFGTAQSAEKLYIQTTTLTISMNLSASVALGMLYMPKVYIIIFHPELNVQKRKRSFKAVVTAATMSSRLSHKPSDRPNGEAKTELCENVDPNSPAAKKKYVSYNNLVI
Metabotropic glutamate receptor 4 (Homo sapiens), sequence (Q14833 whole entry): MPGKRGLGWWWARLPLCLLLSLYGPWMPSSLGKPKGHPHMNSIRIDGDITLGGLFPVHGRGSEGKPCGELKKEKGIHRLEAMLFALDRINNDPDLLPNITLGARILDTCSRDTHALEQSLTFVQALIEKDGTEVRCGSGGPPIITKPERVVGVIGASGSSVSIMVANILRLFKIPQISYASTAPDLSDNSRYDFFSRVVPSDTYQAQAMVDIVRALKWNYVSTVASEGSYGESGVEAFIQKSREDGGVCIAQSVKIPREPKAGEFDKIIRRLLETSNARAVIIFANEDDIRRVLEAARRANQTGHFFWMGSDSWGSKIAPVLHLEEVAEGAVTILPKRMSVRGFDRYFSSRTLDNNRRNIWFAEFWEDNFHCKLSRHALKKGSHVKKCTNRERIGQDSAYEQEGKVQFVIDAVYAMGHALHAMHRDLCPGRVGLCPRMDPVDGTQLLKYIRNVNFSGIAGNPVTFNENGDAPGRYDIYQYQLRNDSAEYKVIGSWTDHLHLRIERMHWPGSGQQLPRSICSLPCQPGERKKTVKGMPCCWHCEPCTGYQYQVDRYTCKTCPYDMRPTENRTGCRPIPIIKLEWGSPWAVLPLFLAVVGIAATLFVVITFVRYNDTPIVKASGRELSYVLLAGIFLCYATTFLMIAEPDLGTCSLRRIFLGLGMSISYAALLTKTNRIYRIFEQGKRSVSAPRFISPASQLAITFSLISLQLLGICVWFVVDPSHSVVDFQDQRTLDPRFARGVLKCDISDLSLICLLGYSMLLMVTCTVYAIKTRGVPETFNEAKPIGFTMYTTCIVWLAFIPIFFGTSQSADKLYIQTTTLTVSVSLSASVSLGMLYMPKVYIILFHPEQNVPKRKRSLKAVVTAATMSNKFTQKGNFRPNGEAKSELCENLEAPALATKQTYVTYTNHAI

O=C1N[C@H](c2cncc(C#Cc3ccccc3)c2)[C@@H](c2cc(F)ccc2F)O1
Activity (Canis familiaris): Non-toxic | Activity [1]: > 10 µM | concentration (Plasma [2]): 34 nM | Activity [3]: > 10 µM | Vd [4]: 1.8 L/kg | Activity [5]: > 10 µM | concentration (Plasma [6]): 116 nM | Activity [7]: > 10 µM | Activity [8]: > 10 µM | minimal effective dose (Mus musculus [9]): 0.3 mg/kg | Activity [10]: > 10 µM | Occ (Rattus norvegicus [11]): 19% | Cmax [12]: 41000 nM | Activity [13]: > 10 µM | Activity [14]: > 10 µM | Activity [15]: > 10 µM | Occ (Mus musculus [16]): 18% | bioavailability [17]: 68% | minimal effective dose (Rattus norvegicus [18]): 0.1 mg/kg | Kp [19]: 1 | concentration (Brain [20]): 34 nM | Activity [21]: > 10 µM | Occ (Mus musculus [22]): 94% | Activity (Salmonella typhimurium [23]): Non-toxic | AUC(0-t) at 24 h [24]: 751 µM·h | Activity [25]: > 10 µM | Activity (Rattus norvegicus [26]): Non-toxic | Activity [27]: > 10 µM | Activity [28]: inactive | Activity (Rattus norvegicus [29]): Non-toxic | Activity [30]: > 10 µM | pIC50 [31]: ≤ 5.89 | bioavailability [32]: 100% | Activity [33]: > 10 µM | Activity [34]: > 10 µM | pIC50 (Progesterone receptor): 5.64 | Activity (Mus musculus [35]): Non-toxic | inhibition [36]: inactive | Activity (Rattus norvegicus [37]): Non-toxic | inhibition (Homo sapiens): 40% | clearance [38]: 11 mL/min/kg | concentration (Brain [39]): 178 nM | fraction unbound [40]: 0.007 | Activity [41]: > 10 µM | Activity [42]: > 10 µM | Activity [43]: > 10 µM | Activity [44]: > 10 µM | Activity (Salmonella typhimurium [45]): Non-toxic | Activity [46]: > 10 µM | Activity [47]: > 10 µM | bioavailability [48]: 50% | pIC50 [49]: 5.44

COc1cccc([C@H]2OC(=O)N[C@@H]2c2cccc(C#Cc3ccccc3)c2)c1
pKi [50]: 7.89 | pEC50 [51]: 7.54 | pEC50 [52]: < 4.52 | fraction unbound [40]: 0.003 | Activity (Mus musculus [53]): Non-toxic

O=C1N[C@H](c2cncc(C#Cc3cncc(F)c3)c2)[C@@H](c2ccc(F)cc2)O1
pKi [50]: 7.60 | pEC50 [51]: 8.22 | Activity (Mus musculus [54]): Non-toxic | fraction unbound [40]: 0.035 | Activity (Mus musculus [53]): Toxic | pEC50 [55]: 6.51
